Measured values as given in US20240366471A1, “MULTIDOSE ANTIBODY DRUG PRODUCTS USING PHENOL OR BENZYL ALCOHOL” (Regeneron Pharmaceuticals, Inc., priority 2023, published 2024).

Experiments:
[1] = Overall storage stability of mAb formulations with preservatives; settings: all storage conditions
Protocol: Storage stability of the Fc-containing proteins were assessed at various temperatures, as will be described in further detail, including at 5° C., 25° C., 40° C., and 45° C., to enable kinetic degradation profiling, if applicable.
The sample formulations with preservatives were compared to the control formulations without preservatives to evaluate the effect of preservatives on protein stability.

[2] = Compatibility of preservatives with mAb formulations; format: physicochemical; settings: preservative in mAb formulations, incompatibility seen as turbidity
[3] = Purity by SE-UPLC (% HMW, % Main, % LMW) on storage; format: physicochemical; settings: stress conditions (40° C. and 45° C.)
Protocol: To determine the effect of preservatives on high molecular weight (HMW) complex formation for different mAbs formulations, various antibodies were incubated at 40° C. over the course of 3 months with or without tested preservatives.
To determine the effect of preservatives on high molecular weight (HMW) complex formation for different mAbs formulations, various antibodies were incubated at 25° C. over the course of 6 months with or without tested preservatives.

Which results are given for `Oc1ccccc1` [phenol]?
destabilizing effect of preservative on mAbs (in words) [1]: least destabilization effect; destabilizing effect of preservative on mAbs (in words) ([1]; listed as Phenol): only minimal destabilizing effect

Which results are given for `Cc1cccc(O)c1` [m-cresol]?
compatibility with the mAb formulations [2]: not compatible; compatibility with the mAb formulations ([2]; listed as cresol): incompatible

Which “mAb aggregation detected by SE-UPLC (in words)” value [3] does the source give for `OCc1ccccc1` [benzyl alcohol] here?
The value was “higher mAb aggregation”.
